Structures are written as SMILES.

Data on 35 compounds can be found in the supplement of paper PMC11127212.

Series [1] in a line: collision cross section (TWIMS, N2) of ion [M+Na]+; higher = larger gas-phase ion cross section. The following applies: ionization: ESI positive; LC: HILIC, pH 3.0 ammonium formate. The protocol:
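Reference standards (20-100 uM) were separated by HILIC UPLC (BEH HILIC, 45 °C): acidic pH 3.0 ammonium formate/formic acid for ESI+ and basic pH 9.0 ammonium acetate/ammonia for ESI-. They were analysed on a Synapt G2-Si traveling-wave IMS-QTOF with nitrogen drift gas (WH 30 V; WV 800 m/s in ESI+ and 1000 m/s in ESI-). CCS (TWCCSN2, Å2) was calibrated with Major Mix IMS/TOF and LockCCS leucine enkephalin; inter-day RSD was <1%.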

Series [2] can be described thus: retention time on BEH HILIC column (20 min gradient, 0.4 mL/min); higher = later elution. The following applies: LC: HILIC. The protocol: (§1)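 Reference standards (20-100 uM) were separated by HILIC UPLC (BEH HILIC, 45 °C): acidic pH 3.0 ammonium formate/formic acid for ESI+ and basic pH 9.0 ammonium acetate/ammonia for ESI-. They were analysed on a Synapt G2-Si traveling-wave IMS-QTOF with nitrogen drift gas (WH 30 V; WV 800 m/s in ESI+ and 1000 m/s in ESI-).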

Series [3] can be described thus: collision cross section (TWIMS, N2) of ion [M-H]-; higher = larger gas-phase ion cross section. The following applies: ionization: ESI negative; LC: HILIC, pH 9.0 ammonium acetate. The protocol: as §1
Series [4] is described as follows: collision cross section (TWIMS, N2) of ion [M+H]+; higher = larger gas-phase ion cross section. The following applies: ionization: ESI positive; LC: HILIC, pH 3.0 ammonium formate. The method, then:
as §1

Setting [5] is: ionization: ESI negative, pH 9.0 ammonium acetate.
[6] abbreviates: ionization: ESI positive, pH 3.0 ammonium formate.

In the case of `OC[C@H]1O[C@@H](O[C@H]2[C@H](O)[C@@H](O)[C@@H](O)O[C@@H]2CO)[C@H](O)[C@@H](O)[C@H]1O` [D-lactose], the collision cross section in series [1] stood at 171.29 Å²; in series [3], 172.39 Å². Also, the “retention time on BEH HILIC column” value in series [2] (setting [5]) was found to be 7.33 min; in series [2] (setting [6]), 6.42 min.
For `OC[C@@H](O)[C@H](O)[C@H](O)[C@@H](O)CO` [Galactitol] the same measures were 140.03 Å², 133.44 Å², 4.84 min and 5.56 min.
For `OC[C@@H](O)[C@@H](O)[C@H](O)[C@H](O)CO` [Mannitol], the collision cross section in series [1] is 140.03 Å²; in series [3], 134.82 Å². Moreover, the “retention time on BEH HILIC column” value in series [2] (setting [5]) was found to be 4.75 min; in series [2] (setting [6]) it was 4.8 min.
With `OC[C@H]1O[C@](O)(CO)[C@@H](O)[C@@H]1O` [D-fructose], the collision cross section in series [1] is on record as 140.11 Å². Moreover, the “retention time on BEH HILIC column” value in series [2] (setting [6]) was 3.49 min.
As to `O=C(O)/C=C(\CC(=O)O)C(=O)O` [trans-aconitic acid], the collision cross section in series [1] is on record as 138.79 Å²; in series [3], 118.87 Å². The “retention time on BEH HILIC column” value in series [2] (setting [5]) and in series [2] (setting [6]) was 2.23 min throughout.
As to `O=C(O)CC(O)c1cccc(O)c1` (stereo not given) [3-(3-hydroxyphenyl)-3-hydroxypropanoic acid], the collision cross section was 146.99 Å² in series [1] and 138.92 Å² in series [3].
Consider `OC[C@@H](O)C(O)[C@H](O)CO` [D-arabitol], for which the collision cross section in series [1] was 133.34 Å²; in series [3], 126.54 Å². The “retention time on BEH HILIC column” value turned out to be 3.16 min in series [2] (setting [5]) and 3.12 min in series [2] (setting [6]).
Turning to `O[C@H]1[C@H](O)[C@@H](O)[C@H](O)[C@@H](O)[C@H]1O` [myo-inositol], the figures for the collision cross section in series [1] and in series [3] were 146 Å² and 133.54 Å², respectively. Further, the “retention time on BEH HILIC column” value turned out to be 5.92 min in series [2] (setting [5]) and 5.84 min in series [2] (setting [6]).
For the compound `CCCCC/C=C\C/C=C\CCCCCCCC(=O)O` [Linoleic acid], the collision cross section in series [1] is recorded as 174.95 Å²; in series [3] it was 179.98 Å². For the same compound, the “retention time on BEH HILIC column” value in series [2] (setting [5]) is 0.73 min; in series [2] (setting [6]), 0.75 min.
For the compound `OC[C@H]1O[C@@](CO)(O[C@H]2O[C@H](CO)[C@@H](O)[C@H](O)[C@H]2O)[C@@H](O)[C@@H]1O` [Sucrose], the collision cross section is 171.56 Å² in series [1] and 169.11 Å² in series [3]. The “retention time on BEH HILIC column” value amounted to 6.6 min in series [2] (setting [5]) and 6.77 min in series [2] (setting [6]).
Turning to `CCCCCC(=O)O` [Caproic acid], the values for the collision cross section in series [1] and in series [3] were 130.13 Å² and 129.59 Å², respectively. Moreover, the “retention time on BEH HILIC column” value in series [2] (setting [5]) worked out at 0.9 min; in series [2] (setting [6]), 1.25 min.
Consider `OC[C@@H](O)[C@H](O)[C@@H](O)CO` [D-xylitol], for which the collision cross section in series [1] is reported as 133.34 Å²; in series [3] it was 128.01 Å². The “retention time on BEH HILIC column” value in series [2] (setting [5]) and in series [2] (setting [6]) was 3.16 min throughout.
Turning to `CCCCCCCCCC(=O)O` [Capric acid], the collision cross section in series [1] worked out at 143.53 Å²; in series [3], 151.28 Å². For the same compound, the “retention time on BEH HILIC column” value in series [2] (setting [5]) and in series [2] (setting [6]) was 0.75 min throughout.
`OC[C@@H](O)[C@@H](O)CO` [Erythritol] displayed a collision cross section in series [1] of 128.38 Å². The “retention time on BEH HILIC column” value in series [2] (setting [6]) is 2.08 min.
With `OC[C@H]1OC(O)[C@H](O)[C@@H]1O` (stereo partly drawn) [D-ribose], the collision cross section in series [1] amounted to 131.78 Å²; in series [3], 121.34 Å². For the same compound, the “retention time on BEH HILIC column” value in series [2] (setting [5]) was 1.58 min; in series [2] (setting [6]), 1.71 min.
For `CCOC(=O)CC(C)C(=O)OCC` (stereo not given) [Diethyl methylsuccinate] the same measures were 151.23 Å², 139.96 Å², 0.95 min and 0.75 min.
Consider `OC1OC[C@@H](O)[C@H](O)[C@H]1O` (stereo partly drawn) [D-xylose], for which the collision cross section in series [1] is reported as 131.78 Å². In addition, the “retention time on BEH HILIC column” value in series [2] (setting [6]) stood at 2 min.
Regarding `CCCCCCCCCCCCCCCCCCCC(=O)O` [Arachidic acid], the collision cross section in series [1] turned out to be 198.31 Å²; in series [3], 193.88 Å². The “retention time on BEH HILIC column” value in series [2] (setting [5]) amounted to 0.73 min; in series [2] (setting [6]), 0.79 min.
The corresponding values for `O=C(O)/C=C(/CC(=O)O)C(=O)O` [cis-aconitic] are 139.19 Å², 126.73 Å², 2.8 min and 2.24 min.
The corresponding values for `OC[C@@H](O)[C@@H](O)[C@H](O)[C@@H](O)CO` [Sorbitol] are 140.03 Å², 133.44 Å², 4.6 min and 4.7 min.
On to `OC[C@H]1O[C@H](O)[C@@H](O)[C@@H](O)[C@@H]1O` [D-mannose], for which the collision cross section in series [1] came to 140.11 Å²; in series [3], 132.14 Å². Also, the results for the “retention time on BEH HILIC column” value in series [2] (setting [5]) and in series [2] (setting [6]) were 5.43 min and 3.87 min, respectively.
For `CCCCCCCCCCCCCCCCCCCCCC(=O)O` [Behenic acid] the same measures were 204.26 Å², 197.18 Å², 0.73 min and 0.82 min.
In series [1], `O=C[C@H](O)[C@H](O)[C@H](O)[C@@H](O)CO` [L-talose] yielded a collision cross section of 135.32 Å². Moreover, in series [2] (setting [6]), the “retention time on BEH HILIC column” value turned out to be 3.25 min.
In the case of `OC[C@@H](O)[C@@H](O)[C@@H](O)CO` [Ribitol], the results for the collision cross section in series [1] and in series [3] were 133.34 Å² and 126.54 Å², respectively. For the same compound, the figures for the “retention time on BEH HILIC column” value in series [2] (setting [5]) and in series [2] (setting [6]) were 3.57 min and 2.85 min, respectively.
The compound `OC[C@H]1O[C@@H](O)[C@H](O)[C@@H](O)[C@@H]1O` [D-glucose] registered a collision cross section in series [1] of 143.24 Å². Moreover, in series [2] (setting [6]), the “retention time on BEH HILIC column” value stood at 3.88 min.
Turning to `NC(=O)NC1NC(=O)NC1=O` (stereo not given) [Allantoin], the figures for the collision cross section in series [1] and in series [3] were 136.32 Å² and 126.16 Å², respectively. Also, the “retention time on BEH HILIC column” value in series [2] (setting [5]) stood at 1.8 min; in series [2] (setting [6]) it was 1.56 min.
In the case of `CCCCCCCCCCCCCCCCCC(=O)O` [Stearic acid], the collision cross section is reported as 186.65 Å² in series [1] and 184.42 Å² in series [3]. For the same compound, the “retention time on BEH HILIC column” value in series [2] (setting [5]) amounted to 0.73 min; in series [2] (setting [6]) it was 0.75 min.
In turn, `OC[C@@]1(O)OC[C@@H](O)[C@H](O)[C@@H]1O` [D-tagalose] came in with a collision cross section in series [1] of 136.93 Å². Besides, in series [2] (setting [6]), the “retention time on BEH HILIC column” value turned out to be 3.02 min.
With `CCCCCCCCCCCCCCCCCCC(=O)O` [Nonadecanoic acid], the collision cross section in series [1] is on record as 190.13 Å²; in series [3], 188.17 Å². Moreover, the “retention time on BEH HILIC column” value in series [2] (setting [5]) turned out to be 0.73 min; in series [2] (setting [6]), 0.77 min.
As for `O=C(O)C(CO)c1ccccc1` (stereo not given) [Tropate], in series [1], the collision cross section was 140.74 Å². Moreover, the “retention time on BEH HILIC column” value in series [2] (setting [6]) turned out to be 1.08 min.
For `OC[C@H]1O[C@H](O)[C@H](O)[C@@H](O)[C@H]1O` [D-galactose] the same measures were 138.53 Å² and 4.2 min.
For the compound `O=C[C@H](O)COP(=O)(O)O` [D-glyceraldehyde 3-phosphate], the values for the collision cross section in series [1] and in series [3] were 137.94 Å² and 131.08 Å², respectively. Moreover, the “retention time on BEH HILIC column” value in series [2] (setting [5]) is 12.1 min; in series [2] (setting [6]), 11.6 min.
On to `O[C@H]1[C@H](O)[C@H](O)OC[C@H]1O` [D-arabinose], for which, in series [1], the collision cross section is given as 131.78 Å². In addition, the “retention time on BEH HILIC column” value in series [2] (setting [6]) is 2.28 min.
As to `O=C(CO)[C@@H](O)[C@H](O)[C@H](O)COP(=O)(O)O` [Fructose 6-phospahte], the collision cross section in series [1] was 151.18 Å²; in series [3] it was 146.38 Å². Also, the “retention time on BEH HILIC column” value in series [2] (setting [5]) was determined as 11.9 min; in series [2] (setting [6]) it was 8.86 min.
Consider `O=C1O[C@H]([C@@H](O)CO)C(O)=C1O` [Ascorbic acid], for which the collision cross section is recorded as 134.39 Å² in series [4] and 122.95 Å² in series [3]. In addition, the results for the “retention time on BEH HILIC column” value in series [2] (setting [5]) and in series [2] (setting [6]) were 1.17 min and 0.72 min, respectively.
